In paper PMC7926352, “Synthesis, Characterization and In Vitro Evaluation of Novel 5-Ene-thiazolo[3,2-b][1,2,4]triazole-6(5H)-ones as Possible Anticancer Agents” (Molecules, 2021):

Which results are given for “Ethyl(Z)-4-(3-(4-chloro-2-((6-oxothiazolo[3,2-b][1,2,4]triazol-5(6H)-ylidene)methyl)phenyl)propanamido)benzoate [Compound 2i]”?
CC50 (Breast Cancer cell lines): 73.2 µM; CC50 (OVCAR-4): > 100 µM; CC50 (786-0): 51.3 µM; CC50 (MCF7): 50.1 µM; CC50 (NCI-H460): 56.2 µM; CC50 (NCI/ADR-RES): > 100 µM
